Laboratory results taken from ChEMBL document CHEMBL5385864, “Pose, duplicate, then elaborate: Steps towards increased affinity for inhibitors targeting the specificity surface of the Pim-1 kinase” (Eur J Med Chem, 2023).
Activity calls are given as the source filed them. No cut-off for these calls is given here.

Assays:
HCT-116 = experiment: Cytotoxicity against human HCT-116 cells assessed as inhibition of cell growth incubated for 3 days by WST-8 assay; conditions: HCT-116, 72 h
[1] = Cytotoxicity against human NCE-G 55T2 cells assessed as inhibition of cell growth incubated for 3 days by WST-8 assay; conditions: NCE-G 55T2, 72 h
[2] = target: T1, Serine/threonine-protein kinase pim-1 (Homo sapiens, UniProt P11309); experiment: Inhibition of Pim-1 in human NCE-G 55T2 cells assessed as reduction in p21 phosphorylation at Thr145 residue at 0.3 mM incubated for 24 hrs by Western blot analysis; assay type: cell-based
[3] = target: T1, Serine/threonine-protein kinase pim-1; experiment: Inhibition of Pim-1 activity (unknown origin) by Eurofins radiometric assay
[4] = target: T1, Serine/threonine-protein kinase pim-1; experiment: Inhibition of Pim-1 activity (unknown origin) at 100 uM by Eurofins radiometric assay
[5] = target: T1, Serine/threonine-protein kinase pim-1; experiment: Inhibition of Pim-1 activity (unknown origin) assessed as residual activity at 100 uM by Eurofins radiometric assay relative to control

Row | Structure (SMILES) | IC50 [3] | inhibition [4] | Activity [5] | other results
1 | O=C1Nc2ccccc2/C1=C\c1ccc(C(=O)O)cc1 | – | – | – | IC50 (HCT-116): 200 µM; IC50 [1]: 100 µM
2 | Nc1ccc2c(c1)NC(=O)/C2=C/c1ccc(C(=O)O)cc1 | 0.6 µM | – | – | inhibition [2]: Active
3 | COC(=O)c1ccc(/C=C2/C(=O)Nc3cc(N)ccc32)cc1 | – | Active | – | –
4 | Nc1ccc2c(c1)NC(=O)C2Cc1ccc(C(=O)O)cc1 (centres undefined) | – | Active | – | –
5 | Cc1cc(O)cc2occ(Cc3ccc(C(=O)O)cc3)c12 | – | – | < 50% | –
6 | O=C(O)c1ccc(Cc2coc3cc(O)ccc23)cc1 | 26.4 µM | – | < 50% | –
